Experiment [1] has as its target T1, Methionyl-tRNA synthetase, putative (Trypanosoma brucei brucei, UniProt Q38C91). Format: functional, Trypanosoma brucei brucei strain 927/4 GUTat10.1.
Experiment [2] can be described thus: Counterscreen for inhibitors of Trypanosoma brucei methionyl tRNA synthetase (MetRS): Luminescence-based cell-based high throughput dose response assay to identify compounds that are cytotoxic to Jurkat human T lymphocyte cells. Format: functional. Background: The purpose of a counterscreen is to sort out artefacts and off-target activity.
Experiment [3] deals with T1, Methionyl-tRNA synthetase, putative. The format is functional, Trypanosoma brucei brucei strain 927/4 GUTat10.1. The source holds these as a separate data set.
Experiment [4] deals with T2, Fatty acid synthase (Homo sapiens, UniProt P49327). In words: inhibition of human FAS-TE enzyme activity – biochemical, endpoint fluorescence intensity, uHTS hits, dose response (AID 624327).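 Further: fluorescence from hydrolysis of an O-methyl fluorescein acyl ester substrate by the enzyme.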 The format is functional.
T2 sequence (P49327 whole entry): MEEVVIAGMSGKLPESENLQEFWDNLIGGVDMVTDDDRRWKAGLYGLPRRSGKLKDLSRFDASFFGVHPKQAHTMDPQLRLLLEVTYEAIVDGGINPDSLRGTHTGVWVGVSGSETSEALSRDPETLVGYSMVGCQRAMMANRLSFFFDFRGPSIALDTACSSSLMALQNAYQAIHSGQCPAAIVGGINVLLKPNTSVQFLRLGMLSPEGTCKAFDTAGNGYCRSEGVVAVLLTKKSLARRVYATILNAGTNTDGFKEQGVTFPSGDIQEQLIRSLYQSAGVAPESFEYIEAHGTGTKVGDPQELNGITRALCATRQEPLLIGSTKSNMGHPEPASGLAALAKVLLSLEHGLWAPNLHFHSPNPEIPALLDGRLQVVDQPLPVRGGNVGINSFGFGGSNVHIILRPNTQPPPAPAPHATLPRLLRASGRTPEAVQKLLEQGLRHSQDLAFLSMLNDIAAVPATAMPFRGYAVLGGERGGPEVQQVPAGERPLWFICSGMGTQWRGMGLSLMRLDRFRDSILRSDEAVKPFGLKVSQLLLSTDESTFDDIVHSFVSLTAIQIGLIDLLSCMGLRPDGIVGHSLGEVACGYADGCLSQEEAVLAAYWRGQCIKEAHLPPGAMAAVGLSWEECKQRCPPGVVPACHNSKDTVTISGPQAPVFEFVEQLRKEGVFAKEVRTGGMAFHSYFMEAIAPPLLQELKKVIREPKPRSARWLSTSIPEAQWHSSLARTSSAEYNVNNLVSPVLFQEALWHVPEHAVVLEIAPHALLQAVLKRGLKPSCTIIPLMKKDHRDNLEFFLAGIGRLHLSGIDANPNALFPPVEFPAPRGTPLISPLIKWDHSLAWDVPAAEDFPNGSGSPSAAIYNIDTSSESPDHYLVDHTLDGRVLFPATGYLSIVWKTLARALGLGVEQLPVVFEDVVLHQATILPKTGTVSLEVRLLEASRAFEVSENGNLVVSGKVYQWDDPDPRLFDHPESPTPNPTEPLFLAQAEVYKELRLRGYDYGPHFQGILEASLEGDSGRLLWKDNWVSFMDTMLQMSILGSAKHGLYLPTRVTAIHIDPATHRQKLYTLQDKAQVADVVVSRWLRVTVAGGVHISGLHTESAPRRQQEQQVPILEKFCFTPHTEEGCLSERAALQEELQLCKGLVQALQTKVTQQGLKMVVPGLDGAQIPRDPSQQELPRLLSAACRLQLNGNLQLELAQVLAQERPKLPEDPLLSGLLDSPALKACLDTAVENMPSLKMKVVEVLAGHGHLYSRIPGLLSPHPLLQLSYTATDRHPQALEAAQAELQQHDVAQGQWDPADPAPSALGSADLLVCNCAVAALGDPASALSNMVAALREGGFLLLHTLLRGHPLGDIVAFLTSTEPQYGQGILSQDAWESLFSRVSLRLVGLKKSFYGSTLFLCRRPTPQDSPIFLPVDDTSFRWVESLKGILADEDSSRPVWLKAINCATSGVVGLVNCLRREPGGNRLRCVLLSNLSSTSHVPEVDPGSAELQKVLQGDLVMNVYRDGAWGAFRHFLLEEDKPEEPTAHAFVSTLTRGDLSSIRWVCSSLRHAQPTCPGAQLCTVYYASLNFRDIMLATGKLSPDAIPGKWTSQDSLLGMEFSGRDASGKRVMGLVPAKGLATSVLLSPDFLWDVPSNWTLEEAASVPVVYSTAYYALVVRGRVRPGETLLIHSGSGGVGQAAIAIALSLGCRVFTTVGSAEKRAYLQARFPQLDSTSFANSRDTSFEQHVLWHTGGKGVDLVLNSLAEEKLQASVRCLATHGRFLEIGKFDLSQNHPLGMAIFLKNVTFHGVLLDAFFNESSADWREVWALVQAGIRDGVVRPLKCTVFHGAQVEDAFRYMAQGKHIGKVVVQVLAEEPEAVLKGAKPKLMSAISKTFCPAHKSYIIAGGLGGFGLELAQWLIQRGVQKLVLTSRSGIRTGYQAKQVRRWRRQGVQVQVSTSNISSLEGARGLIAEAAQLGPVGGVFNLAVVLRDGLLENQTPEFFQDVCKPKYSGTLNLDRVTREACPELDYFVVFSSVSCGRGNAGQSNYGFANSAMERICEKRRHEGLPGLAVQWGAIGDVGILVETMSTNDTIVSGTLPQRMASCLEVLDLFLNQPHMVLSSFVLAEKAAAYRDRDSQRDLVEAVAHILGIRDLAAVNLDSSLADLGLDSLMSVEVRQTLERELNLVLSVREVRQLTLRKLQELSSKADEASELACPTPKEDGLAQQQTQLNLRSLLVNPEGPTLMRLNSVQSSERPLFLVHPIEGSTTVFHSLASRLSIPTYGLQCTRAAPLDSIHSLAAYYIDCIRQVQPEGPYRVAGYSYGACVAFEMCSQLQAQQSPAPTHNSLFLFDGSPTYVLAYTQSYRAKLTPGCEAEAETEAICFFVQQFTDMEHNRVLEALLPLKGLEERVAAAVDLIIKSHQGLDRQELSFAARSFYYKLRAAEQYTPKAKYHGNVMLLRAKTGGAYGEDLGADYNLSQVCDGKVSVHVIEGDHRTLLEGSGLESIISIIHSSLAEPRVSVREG
Experiment [5] deals with T2, Fatty acid synthase. The experiment in a line: inhibition of human FAS-TE enzyme activity – biochemical, kinetic fluorescence intensity, dose response (AID 624326).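 Further: rate of fluorescence rise from hydrolysis of a fluorogenic O-methyl fluorescein ester substrate.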 Format: functional.
Experiment [6] deals with Tyrosine-protein phosphatase non-receptor type 11 (Homo sapiens, UniProt Q06124). The experiment in a line: PTPN11 enzyme inhibitors – biochemical, selectivity assay for STEP inhibitor project, dose response (AID 602367). The format is functional. The following applies: read-out: IC50_Mean.
Chain of Tyrosine-protein phosphatase non-receptor type 11 (Q06124 whole entry): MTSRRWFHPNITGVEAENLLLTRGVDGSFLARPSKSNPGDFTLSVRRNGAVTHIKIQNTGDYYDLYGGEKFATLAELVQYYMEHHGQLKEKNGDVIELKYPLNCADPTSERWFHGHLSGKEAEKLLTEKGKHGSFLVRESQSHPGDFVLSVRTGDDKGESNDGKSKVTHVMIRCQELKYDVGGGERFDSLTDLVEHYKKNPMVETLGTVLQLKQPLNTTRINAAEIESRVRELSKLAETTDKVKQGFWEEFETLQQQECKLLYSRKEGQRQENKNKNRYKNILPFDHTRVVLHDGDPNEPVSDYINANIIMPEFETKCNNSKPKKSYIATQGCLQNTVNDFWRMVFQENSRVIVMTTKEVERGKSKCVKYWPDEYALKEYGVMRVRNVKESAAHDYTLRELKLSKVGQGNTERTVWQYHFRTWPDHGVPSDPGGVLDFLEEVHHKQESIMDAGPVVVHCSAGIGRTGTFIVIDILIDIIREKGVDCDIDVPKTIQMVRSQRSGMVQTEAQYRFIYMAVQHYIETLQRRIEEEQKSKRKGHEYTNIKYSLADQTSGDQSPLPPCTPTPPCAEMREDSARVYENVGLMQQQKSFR
Experiment [7] deals with 26S proteasome non-ATPase regulatory subunit 14 (Homo sapiens, UniProt O00487). In words: inhibition of proteasome subunit RPN11 – biochemical, fluorescence polarization, uHTS hits, confirmation (AID 602368). The format is functional. (Polarisation of emitted light reports the rotation of a fluorescent probe.)
The target of experiment [8] is Tyrosine-protein phosphatase non-receptor type 5 (Homo sapiens, UniProt P54829). In words: PTPN5 enzyme inhibition – biochemical, fluorescence intensity, uHTS hits, confirmation (AID 602372). The format is functional. As to conditions: read-out: IC50_Mean.
Chain of Tyrosine-protein phosphatase non-receptor type 5 (P54829 whole entry): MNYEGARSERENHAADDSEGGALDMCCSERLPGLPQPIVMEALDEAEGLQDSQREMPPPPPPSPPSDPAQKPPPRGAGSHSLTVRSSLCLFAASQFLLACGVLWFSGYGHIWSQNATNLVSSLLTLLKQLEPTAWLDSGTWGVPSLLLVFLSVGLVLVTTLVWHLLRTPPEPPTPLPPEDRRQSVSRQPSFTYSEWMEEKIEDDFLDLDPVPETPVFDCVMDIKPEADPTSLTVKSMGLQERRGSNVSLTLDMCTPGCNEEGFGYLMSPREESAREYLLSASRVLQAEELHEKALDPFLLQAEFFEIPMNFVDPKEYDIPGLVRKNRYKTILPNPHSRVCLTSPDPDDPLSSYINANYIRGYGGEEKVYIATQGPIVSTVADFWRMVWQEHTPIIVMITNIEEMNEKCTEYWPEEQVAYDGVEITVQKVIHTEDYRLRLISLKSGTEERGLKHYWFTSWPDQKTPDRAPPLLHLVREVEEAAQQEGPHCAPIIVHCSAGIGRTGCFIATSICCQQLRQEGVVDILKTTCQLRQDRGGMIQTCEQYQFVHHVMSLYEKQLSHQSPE
Experiment [9] concerns the target 72 kDa type IV collagenase (Homo sapiens, UniProt P08253). In words: Dose Response validation of uHTS RPN11 inhibitor hits using a MMP-2 Fluorescence assay. The format is functional.
Experiment [10] concerns the target Dual specificity protein phosphatase 3 (Homo sapiens, UniProt P51452). The experiment in a line: VHR phosphatase inhibition, dose response, selectivity assay for STEP inhibitor project, biochemical (AID 602374). Format: functional. The following applies: read-out: IC50_Mean.
For another experiment, the target named is Prothrombin (Bos taurus, UniProt P00735). The experiment in a line: thrombin protease inhibitors – biochemical, fluorescence polarization, uHTS hits, dose response (AID 602369). The format is functional.
Experiment [11] deals with T3, Tyrosine-protein phosphatase non-receptor type 22 (Homo sapiens, UniProt Q9Y2R2).
T3 sequence (Q9Y2R2 whole entry): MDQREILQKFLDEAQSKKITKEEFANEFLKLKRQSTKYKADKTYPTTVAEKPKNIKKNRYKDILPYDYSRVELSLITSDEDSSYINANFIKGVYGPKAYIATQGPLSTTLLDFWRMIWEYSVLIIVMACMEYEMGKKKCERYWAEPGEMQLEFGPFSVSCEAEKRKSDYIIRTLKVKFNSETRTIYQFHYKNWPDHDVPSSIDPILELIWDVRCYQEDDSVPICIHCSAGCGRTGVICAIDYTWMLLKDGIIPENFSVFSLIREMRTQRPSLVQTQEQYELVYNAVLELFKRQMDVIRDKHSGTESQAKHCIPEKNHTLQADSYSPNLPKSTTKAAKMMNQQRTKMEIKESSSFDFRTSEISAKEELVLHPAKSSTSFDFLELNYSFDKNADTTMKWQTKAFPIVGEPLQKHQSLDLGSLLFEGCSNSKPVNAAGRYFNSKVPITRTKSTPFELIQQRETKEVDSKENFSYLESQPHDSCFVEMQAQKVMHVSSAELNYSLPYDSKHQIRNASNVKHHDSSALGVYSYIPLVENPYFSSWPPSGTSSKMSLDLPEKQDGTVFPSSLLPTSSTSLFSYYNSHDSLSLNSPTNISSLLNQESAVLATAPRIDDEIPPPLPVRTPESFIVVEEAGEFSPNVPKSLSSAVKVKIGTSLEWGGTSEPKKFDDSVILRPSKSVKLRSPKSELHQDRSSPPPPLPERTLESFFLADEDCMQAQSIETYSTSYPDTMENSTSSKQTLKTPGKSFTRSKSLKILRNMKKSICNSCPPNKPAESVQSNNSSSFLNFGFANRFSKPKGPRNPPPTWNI
In words: lymphoid phosphatase LYP inhibitors – biochemical, selectivity assay for STEP inhibitor project, dose response (AID 624241). The format is functional.

A short description of experiment [12]: general mammalian cell viability loss – inhibitor set, cherry-pick, set 2, cytotoxicity control for miR-122 modulator project, dose response (AID 720697). Format: functional, cell-based.
The nature of experiment [13]: general mammalian cell viability loss – activator set, cherry-pick, cytotoxicity control for miR-122 modulator project, dose response (AID 720690).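 Further: HEK293T human cells scored for general mammalian cytotoxicity.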 The format is functional, cell-based.
Experiment [14] is described as follows: mouse fibroblast viability loss – cell-based, cherry-pick samples, set 2, cytotoxicity control for T. cruzi growth inhibitor project, dose response (AID 651817). The format is functional. As to conditions: NIH3T3.

The term AC50 denotes the concentration giving half of the maximal activity seen.

The structures appear in SMILES notation. Active and inactive are the calls of the source.

T1 sequence (Q38C91 whole entry): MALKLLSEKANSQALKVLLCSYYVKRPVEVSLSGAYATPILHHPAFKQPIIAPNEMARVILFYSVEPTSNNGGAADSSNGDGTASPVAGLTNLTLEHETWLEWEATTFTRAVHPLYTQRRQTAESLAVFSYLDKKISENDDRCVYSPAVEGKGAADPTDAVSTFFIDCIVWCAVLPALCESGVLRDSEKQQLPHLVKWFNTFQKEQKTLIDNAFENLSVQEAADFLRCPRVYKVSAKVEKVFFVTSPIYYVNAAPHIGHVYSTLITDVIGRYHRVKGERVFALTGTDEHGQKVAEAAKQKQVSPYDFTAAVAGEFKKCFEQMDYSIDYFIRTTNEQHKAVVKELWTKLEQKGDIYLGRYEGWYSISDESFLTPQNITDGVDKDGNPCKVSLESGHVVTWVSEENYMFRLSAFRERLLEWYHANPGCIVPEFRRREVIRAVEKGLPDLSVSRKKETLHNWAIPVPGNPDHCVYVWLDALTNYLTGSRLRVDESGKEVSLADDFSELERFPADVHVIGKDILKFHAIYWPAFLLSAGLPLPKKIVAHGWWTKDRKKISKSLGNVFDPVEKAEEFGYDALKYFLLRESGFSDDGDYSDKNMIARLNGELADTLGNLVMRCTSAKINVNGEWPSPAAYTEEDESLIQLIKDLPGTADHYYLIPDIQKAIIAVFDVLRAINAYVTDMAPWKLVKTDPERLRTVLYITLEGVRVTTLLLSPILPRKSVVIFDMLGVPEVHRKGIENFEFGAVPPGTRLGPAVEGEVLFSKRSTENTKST
Chain of 72 kDa type IV collagenase (P08253 whole entry): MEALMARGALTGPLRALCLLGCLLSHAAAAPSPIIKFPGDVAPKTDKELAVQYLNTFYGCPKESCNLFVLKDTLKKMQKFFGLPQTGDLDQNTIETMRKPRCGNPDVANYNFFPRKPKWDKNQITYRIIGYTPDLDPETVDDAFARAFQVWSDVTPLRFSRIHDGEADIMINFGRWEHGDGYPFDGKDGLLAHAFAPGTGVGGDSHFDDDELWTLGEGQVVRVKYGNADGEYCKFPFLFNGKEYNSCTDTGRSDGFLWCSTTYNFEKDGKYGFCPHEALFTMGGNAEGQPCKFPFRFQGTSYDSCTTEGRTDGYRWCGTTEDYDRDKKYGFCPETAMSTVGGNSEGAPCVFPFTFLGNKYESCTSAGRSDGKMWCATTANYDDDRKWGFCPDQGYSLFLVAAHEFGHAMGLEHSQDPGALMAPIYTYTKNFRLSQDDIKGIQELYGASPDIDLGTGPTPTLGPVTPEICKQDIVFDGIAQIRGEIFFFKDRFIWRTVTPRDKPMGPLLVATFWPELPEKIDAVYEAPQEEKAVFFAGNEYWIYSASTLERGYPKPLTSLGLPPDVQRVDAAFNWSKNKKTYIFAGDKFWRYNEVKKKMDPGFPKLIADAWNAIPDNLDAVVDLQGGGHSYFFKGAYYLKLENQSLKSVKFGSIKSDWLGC

On to `Cc1ccc(NC(=O)CN(C)C(=O)c2ccc(Cl)c([N+](=O)[O-])c2)cc1`, for which the IC50 is 17.9 µM (inactive) in [1]; 56.7 µM (inactive) in experiment [2]; 8.63 µM (active) in experiment [3]; 7.6 µM (active) at Fatty acid synthase [4]; 6.26 µM (active) at Fatty acid synthase [5].
On to `COc1cc(Cl)cc(/C=N\NC(=O)c2ccc3c(c2)OCO3)c1O`, for which the IC50 was 4.16 µM (active) in experiment [6]; 21.5 µM (active) in experiment [7]; 9.73 µM (active) in [8]; > 100 µM (inactive) in experiment [9]; 5.02 µM (active) in experiment [10]; 65.6 µM (active) on Prothrombin. Also, the IC50 in experiment [11] is > 100 µM (inactive). Moreover, the half-maximal activity concentration (AC50) was 5.99 µM (active) in experiment [12] and 16.6 µM (active) in [13].
As for `C[C@@H]1CN([C@@H](C)CO)C(=O)c2cccc(NC(=O)Nc3ccc(C(F)(F)F)cc3)c2O[C@@H]1CN(C)Cc1ccc(Cl)c(Cl)c1`, in [14], the half-maximal activity concentration (AC50) is 14.2 µM (active).

These data come from ChEMBL document CHEMBL1201862, “PubChem BioAssay data set” (2004).
